Columns and labels:
[1] = biological target: T1, ROCK2 human recombinant enzyme (Homo sapiens, UniProt O75116); experiment: ROCK2 inhibition assay (Eurofins-Cerep, phosphorylation of Ulight-RRRSLLE substrate); format: biochemical
T1 construct: purchased EUROFINS-CEREP France (contract assay, study numbers 100033685 and 100040481); host or cells: Sf21 insect cells
Protocol: (§1) The analysis was performed using software developed at Cerep (Hill software) and GraphPad Prism® 5.0 (GraphPad Software, Inc., San Diego, CA) and validated through comparison with results generated using the SigmaPlot 4.0 software.
(§2) Prior to this assay, we evaluated the solubility of these compounds in water (buffer pH 7.4) to ensure that the inhibition percentages were not influenced by the precipitation of the compounds under test conditions.

[2] = biological target: T2, IKK-β (Homo sapiens, UniProt O14920); experiment: IKK-β inhibition screening; format: biochemical; settings: screening concentration of 10 μM; data not shown
T2 sequence (O14920 1-756): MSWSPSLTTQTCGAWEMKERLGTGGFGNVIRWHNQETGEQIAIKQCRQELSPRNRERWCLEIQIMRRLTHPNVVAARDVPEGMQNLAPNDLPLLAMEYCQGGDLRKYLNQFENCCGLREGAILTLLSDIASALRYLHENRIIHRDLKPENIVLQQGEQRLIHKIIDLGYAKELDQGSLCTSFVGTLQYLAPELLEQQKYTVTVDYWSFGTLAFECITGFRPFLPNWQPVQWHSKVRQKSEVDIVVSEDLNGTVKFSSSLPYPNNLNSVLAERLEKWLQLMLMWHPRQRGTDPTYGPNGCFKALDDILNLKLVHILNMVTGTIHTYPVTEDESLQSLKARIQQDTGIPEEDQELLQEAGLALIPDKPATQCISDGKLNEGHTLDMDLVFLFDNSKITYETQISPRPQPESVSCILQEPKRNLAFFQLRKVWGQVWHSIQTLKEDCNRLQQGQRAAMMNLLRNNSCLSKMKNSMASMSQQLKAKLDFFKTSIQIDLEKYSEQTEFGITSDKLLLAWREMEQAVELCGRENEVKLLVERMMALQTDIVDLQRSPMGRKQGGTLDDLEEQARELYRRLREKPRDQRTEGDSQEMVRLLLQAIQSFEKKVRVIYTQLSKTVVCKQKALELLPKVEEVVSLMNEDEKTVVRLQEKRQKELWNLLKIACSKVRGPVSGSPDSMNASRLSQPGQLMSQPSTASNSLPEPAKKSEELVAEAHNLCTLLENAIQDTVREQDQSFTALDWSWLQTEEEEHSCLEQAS
Description: Furthermore, considering that 2 (LASSBio-1524) was used in the structural design of this new family of ROCK inhibitors we also investigated the ability of 5b (LASSBio-2020) and 11 (LASSBio-2065) to inhibit IKK-β.

[3] = test system: MDA-MB 231 cells; experiment: Plasma membrane integrity assay (LDH); format: cell-based, human; settings: 0.1 to 30 µM, 24 and 48 h
Protocol: The human mammary gland/breast epithelial cell line MDA-MB 231 was obtained from the American Type Culture Collection (ATCC® HTB-26™) and this use was approved by the Ethics Committee for Animal Care and Use in Scientific Research from the Federal University of Rio de Janeiro. Cells were routinely grown in RPMI medium containing 10% foetal bovine serum (FBS), 1% L-glutamine and 1% penicillin-streptomycin, in a humidified 5% CO2 atmosphere at 37 °C. Cells were cultured up to 70–100% confluence and then some cultures were treated with the compounds at different concentrations for 24 or 48 h. All cell culture reagents were purchased from Invitrogen (São Paulo, Brazil).
To measure plasma membrane integrity, we assayed serum lactate dehydrogenase (LDH) levels and calculated percentages of LDH release to the medium. LDH activity was measured spectrophotometrically using a commercial kit (Doles, Goiás, Brazil). […] Then, 10 μl of NAD were added and absorbance intensities were measured in a microplate reader (FlexStation® 3 Reader, Molecular Devices) at 490 nm. The percentage of LDH release was calculated by ([LDH] sample ×100)/total [LDH]. […]
We also analysed the plasma membrane integrity by measuring the serum lactate dehydrogenase (LDH) levels in the culture medium to confirm the cell viability data. […]

[4] = biological target: T3, ROCK1 human recombinant enzyme (Homo sapiens, UniProt Q13464); experiment: ROCK1 inhibition assay (Eurofins-Cerep, phosphorylation of Ulight-RRRSLLE substrate); format: biochemical
T3 construct: purchased EUROFINS-CEREP France (contract assay, study numbers 100033685 and 100040481); host or cells: Sf9 insect cells
T3 sequence (Q13464 whole entry): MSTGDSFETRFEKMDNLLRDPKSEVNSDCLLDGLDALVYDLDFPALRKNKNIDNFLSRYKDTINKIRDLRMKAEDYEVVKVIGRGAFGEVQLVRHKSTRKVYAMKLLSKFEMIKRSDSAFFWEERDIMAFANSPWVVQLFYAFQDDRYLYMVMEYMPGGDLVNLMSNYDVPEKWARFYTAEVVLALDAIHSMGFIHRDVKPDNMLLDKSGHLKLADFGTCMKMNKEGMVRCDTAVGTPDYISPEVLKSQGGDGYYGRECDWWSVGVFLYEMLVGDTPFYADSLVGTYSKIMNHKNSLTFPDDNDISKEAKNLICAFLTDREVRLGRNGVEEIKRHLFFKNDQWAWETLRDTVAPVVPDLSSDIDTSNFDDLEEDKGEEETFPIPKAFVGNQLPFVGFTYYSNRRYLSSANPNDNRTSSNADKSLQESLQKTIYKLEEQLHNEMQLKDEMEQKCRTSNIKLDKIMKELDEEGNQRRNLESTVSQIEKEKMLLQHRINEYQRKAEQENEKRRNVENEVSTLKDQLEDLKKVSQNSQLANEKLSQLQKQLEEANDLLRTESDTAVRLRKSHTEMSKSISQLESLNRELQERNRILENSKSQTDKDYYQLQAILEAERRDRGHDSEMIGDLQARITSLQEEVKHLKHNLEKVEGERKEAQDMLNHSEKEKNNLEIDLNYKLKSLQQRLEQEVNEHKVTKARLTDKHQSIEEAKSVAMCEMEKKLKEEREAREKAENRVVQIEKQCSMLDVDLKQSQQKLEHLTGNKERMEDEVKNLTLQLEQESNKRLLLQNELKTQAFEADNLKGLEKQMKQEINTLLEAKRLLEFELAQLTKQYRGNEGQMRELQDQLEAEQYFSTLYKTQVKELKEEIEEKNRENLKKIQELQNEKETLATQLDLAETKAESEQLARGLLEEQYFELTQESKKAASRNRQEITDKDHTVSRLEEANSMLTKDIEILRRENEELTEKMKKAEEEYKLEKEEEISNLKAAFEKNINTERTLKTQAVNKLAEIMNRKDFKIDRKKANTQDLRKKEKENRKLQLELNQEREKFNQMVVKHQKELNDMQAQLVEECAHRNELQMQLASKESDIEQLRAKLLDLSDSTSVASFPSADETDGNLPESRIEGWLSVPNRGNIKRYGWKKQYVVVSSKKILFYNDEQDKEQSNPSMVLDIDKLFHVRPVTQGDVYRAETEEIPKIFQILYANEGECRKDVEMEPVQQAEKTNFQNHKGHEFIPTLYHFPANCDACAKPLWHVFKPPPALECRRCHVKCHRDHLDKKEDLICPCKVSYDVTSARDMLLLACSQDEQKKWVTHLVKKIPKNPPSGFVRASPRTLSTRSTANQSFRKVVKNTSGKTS
Protocol: as §1, §2

[5] = Chemical stability study (pH 2.0 and pH 7.4 buffers); format: physicochemical; settings: 37 °C
Protocol: Two microliters ([…]) of a concentrated solution of the compound under examination (40 mM stock solution solubilized in DMSO) and 248 μL of acid (0.2 M potassium chloride and 0.2 M HCl; pH 2.0) or neutral (phosphate dibasic, pH 7.4) buffer were added to a 2 ml Eppendorf microtube. After vortexing, the mixture was placed in a water bath at 37 °C under vigorous stirring for 0, 30, 60, 120, and 240 min. After each reaction, 248 μL of basic buffer (phosphate buffer, pH 8.4) was added to neutralize the pH of the medium in the experiments using acidic buffer. The compound was extracted using 1 ml of acetonitrile followed by vigorous vortexing and freezing of the aqueous phase (−10 °C). The organic phase was separated, filtered, and analysed using an HPLC-PDA (acetonitrile/water […], 0.05% of TFA).
Due to the possible chemical instability of the imine functional group present in the N-sulphonylhydrazone framework, the stability profiles of compounds 5b (LASSBio-2020) and 11 (LASSBio-2065) were determined. The study was conducted under two conditions, pH 2.0 and pH 7.4, to mimic the acidic stomach and the neutral plasma environments, respectively. The compounds were examined in the presence of acid (pH 2) and neutral (pH 7.4) buffers with stirring for 240 min at a controlled temperature (37 °C).

[6] = screening concentration 3 μM, average of two experiments

T1 sequence (O75116 1-543 limits assumed): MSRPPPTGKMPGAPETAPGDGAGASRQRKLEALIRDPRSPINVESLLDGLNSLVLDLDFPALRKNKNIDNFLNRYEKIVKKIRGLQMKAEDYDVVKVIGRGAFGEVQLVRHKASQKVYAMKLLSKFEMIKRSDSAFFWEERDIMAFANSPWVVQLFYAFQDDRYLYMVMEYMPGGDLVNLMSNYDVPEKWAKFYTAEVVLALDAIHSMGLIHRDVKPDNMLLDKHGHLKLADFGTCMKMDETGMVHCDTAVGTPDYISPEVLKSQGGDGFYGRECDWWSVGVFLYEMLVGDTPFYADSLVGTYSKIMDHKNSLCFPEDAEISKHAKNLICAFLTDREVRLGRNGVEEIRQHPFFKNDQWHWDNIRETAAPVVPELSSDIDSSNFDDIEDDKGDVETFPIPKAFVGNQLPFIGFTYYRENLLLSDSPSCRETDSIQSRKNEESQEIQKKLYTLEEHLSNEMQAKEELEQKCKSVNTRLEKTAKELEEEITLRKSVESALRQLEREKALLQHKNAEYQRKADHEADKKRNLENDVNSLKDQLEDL

IC50 ([1]; human recombinant ROCK2, five-point assay, 1 to 50 µM, mean of two experiments): 7.1 µM
inhibition at 3 µM [1, 6]: 24.2%
IC50 ([4]; human recombinant ROCK1, five-point assay, 1 to 50 µM, mean of two experiments): 13 µM
inhibition at 3 µM [4, 6]: 29%
recovery percentage under acidic conditions ([5]; pH 2, after 30 min of incubation): 64%
degradation in neutral medium ([5]; pH 7.4, after 4 h): less than 20%
Compound: O=S(=O)(N/N=C/c1ccccc1)c1cccc2cnccc12 [Compound 5b, (E)-N′-benzylideneisoquinoline-5-sulphonohydrazide]
IKK-β inhibition (result in words) [2]: none of these N-sulphonylhydrazone derivatives was able to inhibit IKK-β
LDH levels in culture medium / cytotoxicity in LDH assay (result in words) [3]: not altered
